A short description of data set [1]: Clearance in rat after iv administration. Format: ADME, organism-based. The settings on record: in vivo.
Data set [2] in a line: Volume of distribution at steady state in rat after iv administration. Conditions: in vivo. Format: ADME, organism-based.
Data set [3] is described as follows: Clearance in dog after iv administration. The settings on record: in vivo. Format: ADME, organism-based, Canis lupus familiaris.
The nature of data set [4]: Volume of distribution at steady state in dog after iv administration. Format: ADME, organism-based, Canis lupus familiaris. Conditions: in vivo, read-out: Vdss.
The nature of data set [5]: Clearance in monkey after iv administration. The data set is classed as ADME, organism-based. The settings on record: macaca, in vivo.
A short description of data set [6]: Volume of distribution at steady state in monkey after iv administration. Format: ADME, organism-based. Conditions: macaca, in vivo, read-out: Vdss.
Data set [7] can be described thus: Clearance in human after iv administration. Conditions: in vivo. The data set is classed as ADME, organism-based.
Data set [8] is described as follows: Volume of distribution at steady state in human after iv administration. Conditions: in vivo, read-out: Vdss. The data set is classed as ADME, organism-based.

From ChEMBL document CHEMBL1614629, “Extrapolation of human pharmacokinetic parameters from rat, dog, and monkey data: Molecular properties associated with extrapolative success or failure” (J Pharm Sci, 2005) come the findings set out here.

Each structure is given as a SMILES string.

Consider `C[C@@H](O)[C@H]1C(=O)N2C(C(=O)[O-])=C(SC3Cn4cnc[n+]4C3)[C@H](C)[C@H]12` (some centres undefined) [BIAPENEM], for which the clearance was found to be 16 mL/min/kg in data set [1], 6.2 mL/min/kg in data set [3], 5.3 mL/min/kg in data set [5] and 2.7 mL/min/kg in data set [7]. Besides, the Vdss in data set [2] was 0.24 L/kg. Also, the results for the Vd in data set [4], in data set [6] and in data set [8] were 0.28 L/kg, 0.23 L/kg and 0.25 L/kg, respectively.

`COCCOC(=O)C1=C(C)NC(C)=C(C(=O)OC(C)C)C1c1cccc([N+](=O)[O-])c1` (centres undefined) [NIMODIPINE]: the clearance in data set [1] amounted to 56 mL/min/kg; in data set [3] it was 34 mL/min/kg; in data set [5] it was 33 mL/min/kg; in data set [7] it was 14 mL/min/kg. In addition, the Vdss in data set [2] stood at 0.96 L/kg. For the same compound, the figures for the Vd in data set [4], in data set [6] and in data set [8] were 3.2 L/kg, 3.6 L/kg and 0.9 L/kg, respectively.

As to `O=C1NC(=O)C(c2ccccc2)(c2ccccc2)N1` [PHENYTOIN], the clearance in data set [1] was found to be 7.4 mL/min/kg; in data set [3] it was 2.8 mL/min/kg; in data set [5] it was 7.9 mL/min/kg; in data set [7] it was 0.57 mL/min/kg. In addition, the Vdss in data set [2] was determined as 0.64 L/kg. For the same compound, the Vd in data set [4] is 1 L/kg; in data set [6], 7.8 L/kg; in data set [8], 1.4 L/kg.

Broadly, the clearance is the volume of plasma or blood freed of the substance per unit of time. For orientation: Vdss means a proportionality between amount in the body and measured concentration, not a real space.
